pIC50: −log10 of the molar value.

The target in assay [1] is T1, human CB1 receptor (Homo sapiens, UniProt P21554).
T1 construct: expressed in transfected cells; host or cells: HEK293
Description: bioSensAll β-arrestin2 plasma membrane translocation (+GRK2) BRET biosensor assay in HEK293 cells transfected with hCB1; test compound added before EC75-80 of agonist CP55,940 (100 nM). Conditions: βArrestin2 (+GRK2) BRET biosensor, vs CP55,940 100 nM (EC75-80), read-out: CB1 wt βarr2 IC50. The class given is cell-based. The method, boiled down: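 Antagonist mode: compound at 12 concentrations up to 600 nM, then 100 nM CP55,940 3–5 min later, on hCB1-transfected HEK293 cells carrying the β-arrestin2 plasma-membrane biosensor plus GRK2. After overnight 37 °C incubation, 515/400 nm BRET ratio measured with 2 µM methoxy e-CTZ and standardized against positive/negative controls.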
In general terms: BRET reads energy transfer from a luciferase to a nearby fluorophore.

Assay [2] has as its target T1, human CB1 receptor. Put plainly: bioSensAll GAPL-Gi2 BRET biosensor assay in HEK293 cells transfected with hCB1; test compound added before EC75-80 of agonist CP55,940 (0.1 nM). It counts as cell-based. Conditions: vs CP55,940 0.1 nM (EC75-80), read-out: CB1 wt Gi2 IC50. Put shortly: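 Test compounds at 12 doses up to 600 nM preceded a 0.1 nM CP55,940 challenge in hCB1/GAPL-Gi2 HEK293 cells. After overnight 37° C incubation, methoxy e-coelenterazine (2 µM final) was added and the 515/400 nm BRET ratio normalized to positive and negative controls.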

T1 sequence (P21554 whole entry): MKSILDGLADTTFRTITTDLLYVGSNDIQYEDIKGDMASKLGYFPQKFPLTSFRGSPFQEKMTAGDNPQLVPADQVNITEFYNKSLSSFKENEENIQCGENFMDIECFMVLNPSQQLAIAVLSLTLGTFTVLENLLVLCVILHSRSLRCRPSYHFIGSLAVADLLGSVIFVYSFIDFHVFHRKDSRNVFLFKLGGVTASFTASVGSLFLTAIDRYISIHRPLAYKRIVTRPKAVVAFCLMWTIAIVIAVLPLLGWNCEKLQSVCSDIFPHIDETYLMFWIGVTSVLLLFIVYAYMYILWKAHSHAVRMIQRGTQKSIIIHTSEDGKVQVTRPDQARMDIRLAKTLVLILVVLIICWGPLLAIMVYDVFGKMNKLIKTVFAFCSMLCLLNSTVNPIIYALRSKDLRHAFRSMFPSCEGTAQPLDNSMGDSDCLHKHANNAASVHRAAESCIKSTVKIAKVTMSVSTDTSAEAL

In general, pIC50 refers to the IC50 on a negative log10 scale, so that one unit is a factor of ten. As for `CCNC1(C(N)=O)CCN(c2nc(C#N)nc3c2nc(-c2ccccc2Cl)n3-c2ccc(Cl)cc2)CC1` [Compound 146, 1-(8-(2-chlorophenyl)-9-(4-chlorophenyl)-2-cyano-9H-purin-6-yl)-4-(ethylamino)piperidine-4-carboxamide], the negative logarithm of the IC50 (pIC50) at human CB1 receptor [1] was 8.79; at human CB1 receptor [2] it was 9.14.
In the case of `CCNC1(C(N)=O)CCN(c2nc(C(N)=O)nc3c2nc(-c2ccccc2Cl)n3-c2ccc(Cl)cc2)CC1` [Compound 147, 6-(4-carbamoyl-4-(ethylamino)piperidin-1-yl)-8-(2-chlorophenyl)-9-(4-chlorophenyl)-9H-purine-2-carboxamide], the pIC50 on human CB1 receptor [1] is 7.05; on human CB1 receptor [2], 8.39.
The like results for `CCNC1(C(N)=O)CCN(c2nc(N(C)CCO)nc3c2nc(-c2ccccc2Cl)n3-c2ccc(Cl)cc2)CC1` [Compound 148] were, in that order, 8.83 and 9.00.
Consider `CCNC1(C(N)=O)CCN(c2nc(N)nc3c2nc(-c2ccccc2Cl)n3-c2ccc(Cl)cc2)CC1` [Compound 149], for which the results for the pIC50 at human CB1 receptor [1] and at human CB1 receptor [2] were under 5.30 and 8.05, respectively.
The matching figures for `CCNC1(C(N)=O)CCN(c2nc(N3CCCCC3)nc3c2nc(-c2ccccc2Cl)n3-c2ccc(Cl)cc2)CC1` [Compound 150]: 8.09 and 8.57.
With `CCNC1(C(N)=O)CCN(c2nc(NCc3ccccc3)nc3c2nc(-c2ccccc2Cl)n3-c2ccc(Cl)cc2)CC1` [Compound 151], the pIC50 on human CB1 receptor [1] is 7.89; on human CB1 receptor [2], 8.35.
The matching figures for `CCNC1(C(N)=O)CCN(c2nc(-n3ccnc3)nc3c2nc(-c2ccccc2Cl)n3-c2ccc(Cl)cc2)CC1` [Compound 152]: 8.92 and 9.15.
In the case of `CCNC1(C(N)=O)CCN(c2nc(N3CCC(CO)C3)nc3c2nc(-c2ccccc2Cl)n3-c2ccc(Cl)cc2)CC1` (stereo not drawn) [Compound 153], the pIC50 on human CB1 receptor [1] was 8.89; at human CB1 receptor [2] it was 9.30.
For the molecule `NC(=O)C1CCN(c2nc(N3CCC[C@H]3CO)nc3c2nc(-c2ccccc2Cl)n3-c2ccc(Cl)cc2)CC1` [Compound 154], the pIC50 at human CB1 receptor [1] is 8.14; on human CB1 receptor [2], 9.09.
For `CN(CCO)c1nc(N2CCC(C(N)=O)CC2)c2nc(-c3ccccc3Cl)n(-c3ccc(Cl)cc3)c2n1` [Compound 155], the results for the pIC50 on human CB1 receptor [1] and at human CB1 receptor [2] were 7.83 and 9.00, respectively.
The matching figures for `CNCCOc1nc(N2CCC(C(N)=O)CC2)c2nc(-c3ccccc3Cl)n(-c3ccc(Cl)cc3)c2n1` [Compound 156]: under 5.30 and 7.26.
Consider `CN(CCO)c1nc(N2CCN(C(N)=O)CC2)c2nc(-c3ccccc3Cl)n(-c3ccc(Cl)cc3)c2n1` [Compound 157], for which the pIC50 on human CB1 receptor [1] is 8.22; on human CB1 receptor [2], 9.03.
The matching figures for `CN(CCO)c1nc(N2CCC(C)(C(N)=O)CC2)c2nc(-c3ccccc3Cl)n(-c3ccc(Cl)cc3)c2n1` [Compound 158, 1-[8-(2-chlorophenyl)-9-(4-chlorophenyl)-2-((2-hydroxyethyl)(methyl)amino)-purin-6-yl]-4-methyl-piperidine-4-carboxamide]: 9.03 and 9.26.
With `CC1(C(N)=O)CCN(c2nc(OC[C@@H]3CCCN3)nc3c2nc(-c2ccccc2Cl)n3-c2ccc(Cl)cc2)CC1` [Compound 160, 1-[8-(2-chlorophenyl)-9-(4-chlorophenyl)-2-((2S)-pyrrolidinemethoxy)-purin-6-yl]-4-methyl-piperidine-4-carboxamide], the pIC50 is 7.66 on human CB1 receptor [1] and 9.06 on human CB1 receptor [2].
Turning to `CN(CCO)c1nc(N2CCC(C(F)(F)F)CC2)c2nc(-c3ccccc3Cl)n(-c3ccc(Cl)cc3)c2n1` [Compound 161, 1-[[8-(2-chlorophenyl)-9-(4-chlorophenyl)-6-[4-(trifluoromethyl)-1-piperidyl]purin-2-yl]-methyl-amino]-ethan-2-ol], the pIC50 on human CB1 receptor [1] was 8.82; at human CB1 receptor [2], 9.02.
`OC[C@@H]1CCCN1c1nc(N2CCC(C(F)(F)F)CC2)c2nc(-c3ccccc3Cl)n(-c3ccc(Cl)cc3)c2n1` [Compound 162, [(2S)-1-[8-(2-chlorophenyl)-9-(4-chlorophenyl)-6-[4-(trifluoromethyl)-1-piperidyl]purin-2-yl]pyrrolidin-2-yl]methanol]: the results for the negative logarithm of the IC50 (pIC50) at human CB1 receptor [1] and on human CB1 receptor [2] were 8.74 and 8.89, respectively.
As to `OC[C@@H]1CCCN1c1nc(-c2ccc(C(F)(F)F)nc2)c2nc(-c3ccccc3Cl)n(-c3ccc(Cl)cc3)c2n1` [Compound 163], the negative logarithm of the IC50 (pIC50) was 8.56 at human CB1 receptor [1] and 9.31 on human CB1 receptor [2].
With `O=S1(=O)CCC(Nc2nc(-n3ccnc3)nc3c2nc(-c2ccccc2Cl)n3-c2ccc(Cl)cc2)CC1` [Compound 164], the figures for the pIC50 at human CB1 receptor [1] and on human CB1 receptor [2] were 7.64 and 8.78, respectively.
In the case of `CN(CCO)c1nc(-c2ccc(C(F)(F)F)nc2)c2nc(-c3ccccc3Cl)n(-c3ccc(Cl)cc3)c2n1` [Compound 165], the pIC50 was 8.69 on human CB1 receptor [1] and 9.38 at human CB1 receptor [2].
On to `O=S1(=O)CCC(Nc2nc(N3CCC[C@H]3CO)nc3c2nc(-c2ccccc2Cl)n3-c2ccc(Cl)cc2)CC1` [Compound 166], for which the results for the pIC50 on human CB1 receptor [1] and at human CB1 receptor [2] were 8.85 and 9.51, respectively.
With `CN(CCO)c1nc(NC2CCS(=O)(=O)CC2)c2nc(-c3ccccc3Cl)n(-c3ccc(Cl)cc3)c2n1` [Compound 167], the results for the pIC50 at human CB1 receptor [1] and at human CB1 receptor [2] were 8.36 and 9.38, respectively.
For the molecule `CN1CCN(c2nc(N(C)CCO)nc3c2nc(-c2ccccc2Cl)n3-c2ccc(Cl)cc2)CC1` [Compound 168], the pIC50 was 7.92 on human CB1 receptor [1] and 8.71 at human CB1 receptor [2].
Consider `OC[C@@H]1CN(c2nc(N3CCC[C@H]3CO)nc3c2nc(-c2ccccc2Cl)n3-c2ccc(Cl)cc2)CCO1` [Compound 169], for which the pIC50 on human CB1 receptor [1] was 8.69; at human CB1 receptor [2], 9.27.
The matching figures for `CN(CCO)c1nc(N2CCO[C@H](CO)C2)c2nc(-c3ccccc3Cl)n(-c3ccc(Cl)cc3)c2n1` [Compound 170]: 8.46 and 9.22.
Turning to `COC(=O)N1CCN(c2nc(N(C)CCO)nc3c2nc(-c2ccccc2Cl)n3-c2ccc(Cl)cc2)CC1` [Compound 173], the pIC50 is 8.82 on human CB1 receptor [1] and 9.38 at human CB1 receptor [2].
As to `CN(CCO)c1nc(NC2CN(C(N)=O)C2)c2nc(-c3ccccc3Cl)n(-c3ccc(Cl)cc3)c2n1` [Compound 176], the pIC50 on human CB1 receptor [1] was under 5.30; at human CB1 receptor [2], 7.81.
The matching figures for `CCOC1(C(N)=O)CCN(c2nc(N3CCC[C@H]3CO)nc3c2nc(-c2ccccc2Cl)n3-c2ccc(Cl)cc2)CC1` [Compound 177]: 8.73 and 9.36.
For `CN(CCO)c1nc(NC2CCOCC2)c2nc(-c3ccccc3Cl)n(-c3ccc(Cl)cc3)c2n1` [Compound 178], the pIC50 at human CB1 receptor [1] is 8.39; at human CB1 receptor [2], 9.26.
As for `CN(CCO)c1nc(NC2CN(C(=O)C(F)(F)F)C2)c2nc(-c3ccccc3Cl)n(-c3ccc(Cl)cc3)c2n1` [Compound 179], the figures for the pIC50 on human CB1 receptor [1] and on human CB1 receptor [2] were 8.72 and 9.61, respectively.
In the case of `CN(CCO)c1nc(N2CCC(C)(O)CC2)c2nc(-c3ccccc3Cl)n(-c3ccc(Cl)cc3)c2n1` [Compound 181], the pIC50 was 9.23 at human CB1 receptor [1] and 9.74 at human CB1 receptor [2].
`CCOC1(C(N)=O)CCN(c2nc(N(C)CCO)nc3c2nc(-c2ccccc2Cl)n3-c2ccc(Cl)cc2)CC1` [Compound 182]: the pIC50 at human CB1 receptor [1] was 9.18; at human CB1 receptor [2] it was 9.76.
With `CN(CCO)c1nc(N2CCOCC2)c2nc(-c3ccccc3Cl)n(-c3ccc(Cl)cc3)c2n1` [Compound 183], the pIC50 at human CB1 receptor [1] is 9.11; on human CB1 receptor [2], 9.78.
Regarding `CN(CCO)c1nc(N2CCC(F)(F)CC2)c2nc(-c3ccccc3Cl)n(-c3ccc(Cl)cc3)c2n1` [Compound 184], the values for the pIC50 at human CB1 receptor [1] and at human CB1 receptor [2] were 9.05 and 9.62, respectively.
On to `CN(CCO)c1nc(N2CCC3(CCNC3=O)CC2)c2nc(-c3ccccc3Cl)n(-c3ccc(Cl)cc3)c2n1` [Compound 186], for which the pIC50 at human CB1 receptor [1] was 8.31; at human CB1 receptor [2], 9.39.
As to `CN(CCO)C(=O)C1CN(c2nc(N(C)CCO)nc3c2nc(-c2ccccc2Cl)n3-c2ccc(Cl)cc2)C1` [Compound 187], the results for the pIC50 at human CB1 receptor [1] and on human CB1 receptor [2] were 7.39 and 8.40, respectively.
As to `CN(CCO)c1nc(N2CC3(COC3)C2)c2nc(-c3ccccc3Cl)n(-c3ccc(Cl)cc3)c2n1` [Compound 188], the pIC50 on human CB1 receptor [1] is 8.74; at human CB1 receptor [2], 9.51.
Take `CC(C)Oc1nc(N(C)CCO)nc2c1nc(-c1ccccc1Cl)n2-c1ccc(Cl)cc1` [Compound 189]: the pIC50 on human CB1 receptor [1] was 8.87; at human CB1 receptor [2], 9.38.
Turning to `CN(CCO)c1nc(N2CCC3(CC2)NC(=O)NC3=O)c2nc(-c3ccccc3Cl)n(-c3ccc(Cl)cc3)c2n1` [Compound 190], the pIC50 at human CB1 receptor [1] was 7.63; on human CB1 receptor [2], 8.58.
Regarding `CN(CCO)c1nc(N2CCC3(CCOC3)CC2)c2nc(-c3ccccc3Cl)n(-c3ccc(Cl)cc3)c2n1` [Compound 191], the pIC50 at human CB1 receptor [1] was 9.20; at human CB1 receptor [2] it was 9.38.
The matching figures for `CN(CCO)c1nc(N(C)C2CCOC2)c2nc(-c3ccccc3Cl)n(-c3ccc(Cl)cc3)c2n1` (stereo not drawn) [Compound 197]: 8.92 and 9.79.
Consider `CC(C)(O)COc1nc(N2CCC(C(N)=O)CC2)c2nc(-c3ccccc3Cl)n(-c3ccc(Cl)cc3)c2n1` [Compound 198], for which the pIC50 was 7.50 at human CB1 receptor [1] and 8.11 at human CB1 receptor [2].
The like results for `CC(C)(O)COc1nc(N2CCC(C)(O)CC2)c2nc(-c3ccccc3Cl)n(-c3ccc(Cl)cc3)c2n1` [Compound 199] were, in that order, 8.49 and 9.14.

For the origin of these results see patent US20250333418A1, “PURINE COMPOUNDS, COMPOSITIONS COMPRISING THEM AND USES THEREOF” (Novo Nordisk A/S, priority 2022, published 2025).
